In patent US20140148476A1, “METHODS FOR TREATING OBESITY AND DISORDERS ASSOCIATED WITH HYPERLIPIDEMIA IN A MAMMAL” (AEGERION PHARMACEUTICALS, INC., priority 2009, published 2014):
“Also recorded” adds a separate entry of the source. Where two headings read alike, the source gives them in different places.

How the values were obtained:
[1] = cited from earlier work
DGAT −/−mice = test: Hepatic triglyceride levels in DGAT +/− and DGAT −/− mice dosed with AEGR-733; format: in vivo; conditions: DGAT −/− mice treated with AEGR-733 compared to DGAT +/− mice treated with AEGR-733; oral gavage for four successive days, chow diet, euthanized approximately 6 hours after the last dose
Experimental: DGAT +/−mice or DGAT −/−mice (Jackson Laboratory, Me., U.S.A.) were fed a chow diet ad libitum. Mice were dosed by oral gavage for four successive days with AEGR-733 or with vehicle control at about 9:00 AM. AEGR-733 was dissolved in M-pyrol and diluted to appropriate concentration in vehicle. Final vehicle composition was 10% M-pyrol, 80% water, 5% cremophore, and 5% ethanol. Dosing volume was 200 μl. The mice were euthanized approximately 6 hours after the last dose. Blood was obtained at time of sacrifice by orbital eye bleed and plasma was made for determination of total cholesterol (TC), high density lipoprotein cholesterol (HDL-C), triglyceride (TG) and non-HDL-C.

[2] = 25 mg/day, some patients, monotherapy, cited from earlier work
[3] = clinical studies, dosages of 80 mg/day or greater

Row | Structure (SMILES) | adverse events ([1]; 80 mg/day) | adverse events ([1]; 160 mg/day) | adverse events [1, 3] | therapeutic effectiveness [1, 3] | hepatic triglyceride levels (DGAT −/−mice) | adverse events [2] | adverse events ([2]; listed as BMS-201038)
1 | Cc1cc(C)c2c3ccccc3n(Cc3ccc([C@@H](C(=O)N[C@H](CO)c4ccccc4)C4CCCC4)cc3)c2n1 [implitapide, (2S)-2-cyclopentyl-2-[4-[(2,4-dimethyl-9H-pyrido[2,3-b]indol-9-yl)methyl]phenyl]-N-[(1S)-2-hydroxy-1-phenylethyl]ethanamide] | gastrointestinal disorders, abnormalities in liver function and/or hepatic steatosis | gastrointestinal disorders, abnormalities in liver function and/or hepatic steatosis | gastrointestinal disturbances, abnormalities in liver function, and hepatic steatosis | therapeutically effective |  |  | 
2 | O=C(NC1CCN(CCCCC2(C(=O)NCC(F)(F)F)c3ccccc3-c3ccccc32)CC1)c1ccccc1-c1ccc(C(F)(F)F)cc1 [AEGR-733, N-(2,2,2-Trifluorethyl)-9-[4-[4-[[[4′-(trifluoromethyl)[1,1′biphenyl]-2-Yl]carbonyl]amino]-1-piperidinyl]butyl]9H-fluorene-9-carboxamide] |  |  |  |  | significantly reduced; also recorded: significantly lower | gastrointestinal disorders, abnormalities in liver function and/or hepatic steatosis | gastrointestinal disturbances, abnormalities in liver function, and hepatic steatosis
